Assay: xn = mol fraction of the nth substance listed
Settings: 101 kPa

CCO + CC[n+]1ccn(CCOC)c1.O=S(=O)([O-])C(F)(F)F
viscosity (288.15 K, x2 = 0): 1.319 mPa·s | viscosity (293.15 K, x2 = 0): 1.195 mPa·s | viscosity (298.15 K, x2 = 0): 1.086 mPa·s | viscosity (303.15 K, x2 = 0): 0.989 mPa·s | viscosity (308.15 K, x2 = 0): 0.903 mPa·s | viscosity (313.15 K, x2 = 0): 0.825 mPa·s | viscosity (318.15 K, x2 = 0): 0.757 mPa·s

CC[n+]1ccn(CCOC)c1.O=S(=O)([O-])C(F)(F)F + CCO
viscosity (288.15 K, x1 = 0.0996): 2.654 mPa·s | viscosity (288.15 K, x1 = 0.1999): 4.54 mPa·s | viscosity (288.15 K, x1 = 0.3984): 12.13 mPa·s | viscosity (288.15 K, x1 = 0.4991): 19.22 mPa·s | viscosity (288.15 K, x1 = 0.603): 28.7 mPa·s | viscosity (288.15 K, x1 = 0.699): 43.6 mPa·s | viscosity (288.15 K, x1 = 0.797): 62.8 mPa·s | viscosity (288.15 K, x1 = 0.899): 84.4 mPa·s | viscosity (288.15 K, x1 = 1): 121 mPa·s | viscosity (293.15 K, x1 = 0.0996): 2.374 mPa·s | viscosity (293.15 K, x1 = 0.1999): 4.01 mPa·s | viscosity (293.15 K, x1 = 0.2996): 6.66 mPa·s | viscosity (293.15 K, x1 = 0.3984): 10.37 mPa·s | viscosity (293.15 K, x1 = 0.4991): 16.43 mPa·s | viscosity (293.15 K, x1 = 0.603): 23.77 mPa·s | viscosity (293.15 K, x1 = 1): 92.5 mPa·s | viscosity (298.15 K, x1 = 0.0996): 2.139 mPa·s | viscosity (298.15 K, x1 = 0.2996): 5.84 mPa·s | viscosity (298.15 K, x1 = 0.3984): 8.96 mPa·s | viscosity (298.15 K, x1 = 0.4991): 13.98 mPa·s | viscosity (298.15 K, x1 = 0.603): 19.98 mPa·s | viscosity (298.15 K, x1 = 0.699): 29.12 mPa·s | viscosity (298.15 K, x1 = 0.899): 52.2 mPa·s | viscosity (298.15 K, x1 = 1): 72.5 mPa·s | viscosity (303.15 K, x1 = 0.2996): 5.16 mPa·s | viscosity (303.15 K, x1 = 0.3984): 7.82 mPa·s | viscosity (303.15 K, x1 = 0.4991): 11.97 mPa·s | viscosity (303.15 K, x1 = 0.603): 17.28 mPa·s | viscosity (303.15 K, x1 = 0.699): 24.38 mPa·s | viscosity (303.15 K, x1 = 0.797): 32.04 mPa·s | viscosity (303.15 K, x1 = 0.899): 42.9 mPa·s | viscosity (308.15 K, x1 = 0.0996): 1.757 mPa·s | viscosity (308.15 K, x1 = 0.1999): 2.916 mPa·s | viscosity (308.15 K, x1 = 0.2996): 4.59 mPa·s | viscosity (308.15 K, x1 = 0.3984): 6.88 mPa·s | viscosity (308.15 K, x1 = 0.4991): 10.34 mPa·s | viscosity (308.15 K, x1 = 0.699): 20.67 mPa·s | viscosity (308.15 K, x1 = 1): 47.3 mPa·s | viscosity (313.15 K, x1 = 0.0996): 1.603 mPa·s | viscosity (313.15 K, x1 = 0.1999): 2.644 mPa·s | viscosity (313.15 K, x1 = 0.2996): 4.11 mPa·s | viscosity (313.15 K, x1 = 0.3984): 6.09 mPa·s | viscosity (313.15 K, x1 = 0.4991): 9.01 mPa·s | viscosity (313.15 K, x1 = 0.603): 12.4 mPa·s | viscosity (313.15 K, x1 = 0.699): 17.99 mPa·s | viscosity (313.15 K, x1 = 0.899): 28.85 mPa·s | viscosity (313.15 K, x1 = 1): 39 mPa·s | viscosity (318.15 K, x1 = 0.0996): 1.467 mPa·s | viscosity (318.15 K, x1 = 0.1999): 2.409 mPa·s | viscosity (318.15 K, x1 = 0.2996): 3.72 mPa·s | viscosity (318.15 K, x1 = 0.3984): 5.43 mPa·s | viscosity (318.15 K, x1 = 0.4991): 7.9 mPa·s | viscosity (318.15 K, x1 = 0.603): 11.16 mPa·s | viscosity (318.15 K, x1 = 0.699): 15.6 mPa·s | viscosity (318.15 K, x1 = 0.899): 23.82 mPa·s | viscosity (318.15 K, x1 = 1): 32.59 mPa·s

Source: a compilation of properties of binary mixtures (doi:10.1016/j.molliq.2020.113538)
